Laboratory results as given in patent US20090311279A1, “Colorectal Cancer Antigen” (National Institutes of Health, priority 2004, published 2009).

Experiments:
Assay type in all cases: cell-based, human
[1] = test system: CD4+ clone C111 T cells; 1847 CD40L B cells (HLA-DRβ1*1301); test: Peptide-pulsed 1847 CD40L B cells, IFN-γ release from clone C111 by ELISA; conditions: 18 hrs
Protocol: (§1) Peptides of 20 or 21 amino acids in length that overlapped by 15 amino acids that were encoded by the long open reading frame of the original cDNA clone that was isolated were synthesised by solid-phase method using a peptide synthesiser (AMS 422; Gilson Co., Inc. Middleton, Wis.). The purity of the peptides was verified by mass spectrometry (Tuft's Core Facility, Boston, Mass.). […] After three hours, 1-5×10^4 T cells were added to the wells in 150 μl/well of medium and incubated for 18 hours at 37° C. and 5% CO2, followed by measurement of INF-γ release by ELISA.
(§2) Peptides that were 20 or 21 amino acids in length and that overlapped by either 14 or 16 amino acids, were than synthesised and tested for their ability to sensitise target cells for recognition by C111 T cells. Since autologous normal B cells could not be efficiently expanded, allogeneic normal B cells expressing either DRβ1*0402 or DRβ1*1301 were used to carry out these assays.
(§3) The 1681 and 1847 CD40L stimulated normal B cell lines shared expression of HLA-DRβ1*0402 and HLA-DRβ1*1301 molecules, respectively, with the autologous tumour cell line. These cells were incubated with the panel of peptides and then tested for their ability to stimulate cytokine release from C111 T cells.

[2] = test system: CD4+ clone C111 T cells; 1681 CD40L B cells (HLA-DRβ1*0402); test: Peptide-pulsed 1681 CD40L B cells, IFN-γ release from clone C111 by ELISA; conditions: 18 hrs
Protocol: as §1, §2, §3

C111 T cells = test: Peptide pulsing of target cells expressing HLA-DRβ1*0402 or 1301, cytokine release from C111 T cells; conditions: 1681 and 1847 CD40L B cells pulsed with peptide
Protocol: Peptides of 20 or 21 amino acids in length that overlapped by 15 amino acids that were encoded by the long open reading frame of the original cDNA clone that was isolated were synthesised by solid-phase method using a peptide synthesiser (AMS 422; Gilson Co., Inc. Middleton, Wis.). The purity of the peptides was verified by mass spectrometry (Tuft's Core Facility, Boston, Mass.). Allogeneic B cells (1×10^5 cells/well) that expressed either the DRβ1*0402 or the DRβ1*1301 molecules were incubated with 50 μg/ml in 100 μl/well of ISCOVE'S medium plus 10% HS in flat bottom-96-well plates. After three hours, 1-5×10^4 T cells were added to the wells in 150 μl/well of medium and incubated for 18 hours at 37° C. and 5% CO2, followed by measurement of INF-γ release by ELISA.
as §2
The 1681 and 1847 CD40L stimulated normal B cell lines shared expression of HLA-DRβ1*0402 and HLA-DRβ1*1301 molecules, respectively, with the autologous tumour cell line. […]

[3] = 1847 CD40LB pulsed with peptide 12.5 μg/ml
[4] = 1847 CD40LB pulsed with peptide 25 μg/ml
[5] = 1847 CD40LB pulsed with peptide 26.25 μg/ml
[6] = 1847 CD40LB pulsed with peptide 50 μg/ml
[7] = 1847 CD40LB pulsed with peptide 100 μg/ml
[8] = 1681 CD40LB pulsed with peptide 12.5 μg/ml
[9] = 1681 CD40LB pulsed with peptide 25 μg/ml
[10] = 1681 CD40LB pulsed with peptide 26.25 μg/ml
[11] = 1681 CD40LB pulsed with peptide 50 μg/ml
[12] = 1681 CD40LB pulsed with peptide 100 μg/ml

Row | Sequence | IFN-γ release from clone C111 [1, 3] [pg/mL] | IFN-γ release from clone C111 [1, 4] [pg/mL] | IFN-γ release from clone C111 [1, 5] [pg/mL] | IFN-γ release from clone C111 [1, 6] [pg/mL] | IFN-γ release from clone C111 [1, 7] [pg/mL] | IFN-γ release from clone C111 [2, 8] [pg/mL] | IFN-γ release from clone C111 [2, 9] [pg/mL] | IFN-γ release from clone C111 [2, 10] [pg/mL] | IFN-γ release from clone C111 [2, 11] [pg/mL] | IFN-γ release from clone C111 [2, 12] [pg/mL] | cytokine release from C111 T cells (C111 T cells)
1 | ASAFEIFSTFPPTLYQDDTL [COA-1-derived overlapping peptide] | < 7.8 | < 7.8 | < 7.8 | < 7.8 | < 7.8 |  |  |  |  |  | 
2 | TLYQDDTLTLQAAGLVPKAA (listed as Homo sapiens) [COA-1-derived overlapping peptide] | < 7.8 | < 7.8 | < 7.8 | 326 | 79 | < 7.8 | < 7.8 | < 7.8 | 159 | 51 | stimulated significant cytokine release
3 | LQAAGLVPKAALLLRARRAP [COA-1-derived overlapping peptide] | < 7.8 | < 7.8 | < 7.8 | 32 | 52 | < 7.8 | < 7.8 | < 7.8 | 12 | 21 | 
4 | FSTFPPTLYQDDTLTLQAAG (listed as Homo sapiens) [COA-1-derived overlapping peptide] | 79 | 296 | < 7.8 | 397 | 226 | < 7.8 | 69 | < 7.8 | 236 | 105 | stimulated significant cytokine release
5 | DDTLTLQAAGLVPKAALLLRA [COA-1-derived overlapping peptide] | < 7.8 | < 7.8 | < 7.8 | 33 | 22 | < 7.8 | < 7.8 | < 7.8 | 16 | 11 | 
